{"source": "patent US12162840B2", "about": "“Herbicidal compositions” (SYNGENTA PARTICIPATIONS AG, priority 2018, dated 2024)", "system": "cool season plant species", "assay": "B2 Post-emergence efficacy Test 2, cool season plant species", "assay_type": "in vivo", "conditions": "15 days after application, 0=no damage, 100=total kill", "method": "Seeds of a variety of test species (see Table B1) were sown in standard soil in pots. After cultivation for 12 days (post-emergence) under controlled conditions in a glasshouse (at 24/18° C. or 20/16° C., at day/night; 16 hours light; 65% humidity), the plants were sprayed with an aqueous spray solution derived from the formulation of the technical active ingredient dissolved in IF50 (see Table B2 for composition) and adjuvant (Genapol XO80) was added to the spray solution at a rate of 0.2% v/v. [table] [table] After application, the test plants were grown in a glasshouse under controlled conditions (as above) and watered twice daily. Herbicidal activity was evaluated 15 days after application on a 0-100 scale. The results, where 0=no damage to test plant and 100=total kill of test plant are shown below in Tables 6 to 9.", "data": [{"compound": "Cc1nn(C)c(=O)c(-c2c(F)ccc(Cl)c2CCc2ccc(F)cc2)c1O", "note": "[Compound 1.048]", "values": [{"measurement": "Herbicidal activity (0-100 scale) ALOMY", "setting": "15 g/Ha", "value": 20}, {"measurement": "Herbicidal activity (0-100 scale) ALOMY", "setting": "30 g/Ha", "value": 30}, {"measurement": "Herbicidal activity (0-100 scale) ALOMY", "setting": "60 g/Ha", "value": 70}, {"measurement": "Herbicidal activity (0-100 scale) ALOMY", "setting": "125 g/Ha", "value": 80}, {"measurement": "Herbicidal activity (0-100 scale) ALOMY", "setting": "250 g/Ha", "value": 80}, {"measurement": "Herbicidal activity (0-100 scale) ALOMY", "setting": "500 g/Ha", "value": 90}, {"measurement": "Herbicidal activity (0-100 scale) AVEFA", "setting": "15 g/Ha", "value": 10}, {"measurement": "Herbicidal activity (0-100 scale) AVEFA", "setting": "30 g/Ha", "value": 30}, {"measurement": "Herbicidal activity (0-100 scale) AVEFA", "setting": "60 g/Ha", "value": 60}, {"measurement": "Herbicidal activity (0-100 scale) AVEFA", "setting": "125 g/Ha", "value": 80}, {"measurement": "Herbicidal activity (0-100 scale) AVEFA", "setting": "250 g/Ha", "value": 90}, {"measurement": "Herbicidal activity (0-100 scale) AVEFA", "setting": "500 g/Ha", "value": 90}, {"measurement": "Herbicidal activity (0-100 scale) BEAVA", "setting": "15 g/Ha", "value": 70}, {"measurement": "Herbicidal activity (0-100 scale) BEAVA", "setting": "30 g/Ha", "value": 80}, {"measurement": "Herbicidal activity (0-100 scale) BEAVA", "setting": "60 g/Ha", "value": 80}, {"measurement": "Herbicidal activity (0-100 scale) BEAVA", "setting": "125 g/Ha", "value": 90}, {"measurement": "Herbicidal activity (0-100 scale) BEAVA", "setting": "250 g/Ha", "value": 90}, {"measurement": "Herbicidal activity (0-100 scale) BEAVA", "setting": "500 g/Ha", "value": 90}, {"measurement": "Herbicidal activity (0-100 scale) BROTE", "setting": "15 g/Ha", "value": 0}, {"measurement": "Herbicidal activity (0-100 scale) BROTE", "setting": "30 g/Ha", "value": 10}, {"measurement": "Herbicidal activity (0-100 scale) BROTE", "setting": "60 g/Ha", "value": 20}, {"measurement": "Herbicidal activity (0-100 scale) BROTE", "setting": "125 g/Ha", "value": 50}, {"measurement": "Herbicidal activity (0-100 scale) BROTE", "setting": "250 g/Ha", "value": 60}, {"measurement": "Herbicidal activity (0-100 scale) BROTE", "setting": "500 g/Ha", "value": 70}, {"measurement": "Herbicidal activity (0-100 scale) BRSNN", "setting": "15 g/Ha", "value": 90}, {"measurement": "Herbicidal activity (0-100 scale) BRSNN", "setting": "30 g/Ha", "value": 90}, {"measurement": "Herbicidal activity (0-100 scale) BRSNN", "setting": "60 g/Ha", "value": 90}, {"measurement": "Herbicidal activity (0-100 scale) BRSNN", "setting": "125 g/Ha", "value": 90}, {"measurement": "Herbicidal activity (0-100 scale) BRSNN", "setting": "250 g/Ha", "value": 90}, {"measurement": "Herbicidal activity (0-100 scale) BRSNN", "setting": "500 g/Ha", "value": 90}, {"measurement": "Herbicidal activity (0-100 scale) CHEAL", "setting": "125 g/Ha", "value": 70}, {"measurement": "Herbicidal activity (0-100 scale) CHEAL", "setting": "250 g/Ha", "value": 90}, {"measurement": "Herbicidal activity (0-100 scale) CHEAL", "setting": "500 g/Ha", "value": 100}, {"measurement": "Herbicidal activity (0-100 scale) GALAP", "setting": "15 g/Ha", "value": 20}, {"measurement": "Herbicidal activity (0-100 scale) GALAP", "setting": "30 g/Ha", "value": 30}, {"measurement": "Herbicidal activity (0-100 scale) GALAP", "setting": "60 g/Ha", "value": 50}, {"measurement": "Herbicidal activity (0-100 scale) GALAP", "setting": "125 g/Ha", "value": 60}, {"measurement": "Herbicidal activity (0-100 scale) GALAP", "setting": "250 g/Ha", "value": 60}, {"measurement": "Herbicidal activity (0-100 scale) GALAP", "setting": "500 g/Ha", "value": 80}, {"measurement": "Herbicidal activity (0-100 scale) HORVW", "setting": "15 g/Ha", "value": 10}, {"measurement": "Herbicidal activity (0-100 scale) HORVW", "setting": "30 g/Ha", "value": 10}, {"measurement": "Herbicidal activity (0-100 scale) HORVW", "setting": "60 g/Ha", "value": 10}, {"measurement": "Herbicidal activity (0-100 scale) HORVW", "setting": "125 g/Ha", "value": 40}, {"measurement": "Herbicidal activity (0-100 scale) HORVW", "setting": "250 g/Ha", "value": 40}, {"measurement": "Herbicidal activity (0-100 scale) HORVW", "setting": "500 g/Ha", "value": 80}, {"measurement": "Herbicidal activity (0-100 scale) KCHSC", "setting": "15 g/Ha", "value": 0}, {"measurement": "Herbicidal activity (0-100 scale) KCHSC", "setting": "30 g/Ha", "value": 0}, {"measurement": "Herbicidal activity (0-100 scale) KCHSC", "setting": "60 g/Ha", "value": 10}, {"measurement": "Herbicidal activity (0-100 scale) KCHSC", "setting": "125 g/Ha", "value": 20}, {"measurement": "Herbicidal activity (0-100 scale) KCHSC", "setting": "250 g/Ha", "value": 50}, {"measurement": "Herbicidal activity (0-100 scale) KCHSC", "setting": "500 g/Ha", "value": 80}, {"measurement": "Herbicidal activity (0-100 scale) LOLPE", "setting": "15 g/Ha", "value": 20}, {"measurement": "Herbicidal activity (0-100 scale) LOLPE", "setting": "30 g/Ha", "value": 40}, {"measurement": "Herbicidal activity (0-100 scale) LOLPE", "setting": "60 g/Ha", "value": 90}, {"measurement": "Herbicidal activity (0-100 scale) LOLPE", "setting": "125 g/Ha", "value": 90}, {"measurement": "Herbicidal activity (0-100 scale) LOLPE", "setting": "250 g/Ha", "value": 90}, {"measurement": "Herbicidal activity (0-100 scale) LOLPE", "setting": "500 g/Ha", "value": 90}, {"measurement": "Herbicidal activity (0-100 scale) POAAN", "setting": "15 g/Ha", "value": 30}, {"measurement": "Herbicidal activity (0-100 scale) POAAN", "setting": "30 g/Ha", "value": 30}, {"measurement": "Herbicidal activity (0-100 scale) POAAN", "setting": "60 g/Ha", "value": 80}, {"measurement": "Herbicidal activity (0-100 scale) POAAN", "setting": "125 g/Ha", "value": 80}, {"measurement": "Herbicidal activity (0-100 scale) POAAN", "setting": "250 g/Ha", "value": 90}, {"measurement": "Herbicidal activity (0-100 scale) POAAN", "setting": "500 g/Ha", "value": 90}, {"measurement": "Herbicidal activity (0-100 scale) POLCO", "setting": "15 g/Ha", "value": 60}, {"measurement": "Herbicidal activity (0-100 scale) POLCO", "setting": "30 g/Ha", "value": 70}, {"measurement": "Herbicidal activity (0-100 scale) POLCO", "setting": "60 g/Ha", "value": 90}, {"measurement": "Herbicidal activity (0-100 scale) POLCO", "setting": "125 g/Ha", "value": 90}, {"measurement": "Herbicidal activity (0-100 scale) POLCO", "setting": "250 g/Ha", "value": 90}, {"measurement": "Herbicidal activity (0-100 scale) POLCO", "setting": "500 g/Ha", "value": 90}, {"measurement": "Herbicidal activity (0-100 scale) SINAR", "setting": "15 g/Ha", "value": 40}, {"measurement": "Herbicidal activity (0-100 scale) SINAR", "setting": "30 g/Ha", "value": 80}, {"measurement": "Herbicidal activity (0-100 scale) SINAR", "setting": "60 g/Ha", "value": 80}, {"measurement": "Herbicidal activity (0-100 scale) SINAR", "setting": "125 g/Ha", "value": 90}, {"measurement": "Herbicidal activity (0-100 scale) SINAR", "setting": "250 g/Ha", "value": 90}, {"measurement": "Herbicidal activity (0-100 scale) SINAR", "setting": "500 g/Ha", "value": 90}, {"measurement": "Herbicidal activity (0-100 scale) STEME", "setting": "15 g/Ha", "value": 90}, {"measurement": "Herbicidal activity (0-100 scale) STEME", "setting": "30 g/Ha", "value": 90}, {"measurement": "Herbicidal activity (0-100 scale) STEME", "setting": "60 g/Ha", "value": 90}, {"measurement": "Herbicidal activity (0-100 scale) STEME", "setting": "125 g/Ha", "value": 100}, {"measurement": "Herbicidal activity (0-100 scale) STEME", "setting": "250 g/Ha", "value": 100}, {"measurement": "Herbicidal activity (0-100 scale) STEME", "setting": "500 g/Ha", "value": 100}, {"measurement": "Herbicidal activity (0-100 scale) TRZAW", "setting": "15 g/Ha", "value": 0}, {"measurement": "Herbicidal activity (0-100 scale) TRZAW", "setting": "30 g/Ha", "value": 10}, {"measurement": "Herbicidal activity (0-100 scale) TRZAW", "setting": "60 g/Ha", "value": 20}, {"measurement": "Herbicidal activity (0-100 scale) TRZAW", "setting": "125 g/Ha", "value": 20}, {"measurement": "Herbicidal activity (0-100 scale) TRZAW", "setting": "250 g/Ha", "value": 50}, {"measurement": "Herbicidal activity (0-100 scale) TRZAW", "setting": "500 g/Ha", "value": 80}, {"measurement": "Herbicidal activity (0-100 scale) VERPE", "setting": "15 g/Ha", "value": 60}, {"measurement": "Herbicidal activity (0-100 scale) VERPE", "setting": "30 g/Ha", "value": 80}, {"measurement": "Herbicidal activity (0-100 scale) VERPE", "setting": "60 g/Ha", "value": 90}, {"measurement": "Herbicidal activity (0-100 scale) VERPE", "setting": "125 g/Ha", "value": 80}, {"measurement": "Herbicidal activity (0-100 scale) VERPE", "setting": "250 g/Ha", "value": 100}, {"measurement": "Herbicidal activity (0-100 scale) VERPE", "setting": "500 g/Ha", "value": 100}]}]}
